Key:
β-amyloid peptides (Aβ) = conditions: position of the caffeoyl group (sixth vs fourth), WO 2011/157059 A1; cited from earlier work
[1] = test system: Aβ40 degrading enzyme activity in Neuro-2a conditioned medium; assay: Aβ40 degradation in Neuro-2a conditioned medium (Human Aβ1-40 immunoassay); format: biochemical, mouse; conditions: 50 μM and 100 μM, 24 hours 37° C., FIG. 5
Description: Experimental method: 2×10^7 of mouse neuroblastoma cells (Neuro-2a) were placed on a T175 culture medium, and after overnight, the T175 culture medium was replaced with 30 mL of a chemical-defined medium incubating for 24 hours. After 24 hours, the chemical-defined medium incubated with the cells, which was called a conditioned medium, was centrifuged for 5 minutes at 13,000 rpm, and supernatant liquid was obtained. 10 ng of Aβ40 and testing medicine were added to 300 μL of the conditioned medium, and the mixture was reacted at 37° C. for 24 hours. Immunoassay kits (Human Aβ1-40 Immunoassay kits, Cat.KHB3482, Life Technologies) were used to measure the remaining amount of Aβ in each reaction to examine whether the medicine can improve the activity for enzyme in the medium to degrade Aβ. One not adding any testing medicine (i.e. only containing 10 ng of Aβ40) was a control, and the measured level of Aβ was set to 100%. The levels of Aβ after treated by the testing medicine were compared to the control and expressed in percentage. […] The statistical differences between the control and the testing samples were analyzed by Dunnett's multiple comparison test, which “*” represented p<0.05; “**” represented p<0.01; “***” represented p<0.001; and “****” represented p<0.0001.

| SMILES | activity of inhibiting β-amyloid peptides (Aβ) accumulation (β-amyloid peptides (Aβ)) | extracellular Aβ40 degradation [1] |
| --- | --- | --- |
| C[C@@H]1O[C@@H](O[C@@H]2[C@@H](O)[C@H](OCCc3ccc(O)c(O)c3)O[C@H](CO)[C@H]2OC(=O)/C=C/c2ccc(O)c(O)c2)[C@H](O)[C@H](O)[C@H]1O [acteoside] | the activity decreased | – |
| O=C(/C=C/c1ccc(O)c(O)c1)OCC1OC(OCCc2ccc(O)c(O)c2)C(O)C(O)C1O (centres unmarked) [Sample 9] | – | could effectively improve extracellular Aβ40 degradation |
